Numbers after ± are expanded uncertainties.
Conditions: Liquid, Bellows volumetry

CCCCn1cc[n+](C)c1.F[B-](F)(F)F [1-butyl-3-methylimidazolium tetrafluoroborate]
mass density [kg/m3]
Conditions | 313.1 K | 332.6 K | 352.6 K | 372.7 K | 392.8 K | 412.9 K | 432.6 K | 452.3 K | 472.2 K
100 kPa | 1191 ± 3 | – | – | – | – | – | – | – | –
10000 kPa | 1195 ± 3 | 1182 ± 3 | 1168 ± 3 | 1155 ± 3 | 1142 ± 3 | 1129 ± 3 | 1116 ± 3 | 1102 ± 3 | 1090 ± 2
20000 kPa | 1200 ± 3 | 1186 ± 3 | 1173 ± 3 | 1160 ± 3 | 1148 ± 3 | 1135 ± 3 | 1122 ± 3 | 1108 ± 3 | 1096 ± 2
30000 kPa | 1204 ± 3 | 1191 ± 3 | 1178 ± 3 | 1165 ± 3 | 1153 ± 3 | 1140 ± 3 | 1127 ± 3 | 1115 ± 3 | 1102 ± 3
40000 kPa | 1208 ± 3 | 1195 ± 3 | 1182 ± 3 | 1170 ± 3 | 1158 ± 3 | 1145 ± 3 | 1133 ± 3 | 1120 ± 3 | 1108 ± 3
50000 kPa | 1212 ± 3 | 1200 ± 3 | 1187 ± 3 | 1174 ± 3 | 1163 ± 3 | 1150 ± 3 | 1138 ± 3 | 1126 ± 3 | 1114 ± 3
60000 kPa | 1216 ± 3 | 1204 ± 3 | 1191 ± 3 | 1179 ± 3 | 1167 ± 3 | 1155 ± 3 | 1143 ± 3 | 1131 ± 3 | 1119 ± 3
70000 kPa | 1220 ± 3 | 1208 ± 3 | 1195 ± 3 | 1183 ± 3 | 1172 ± 3 | 1160 ± 3 | 1148 ± 3 | 1136 ± 3 | 1124 ± 3
80000 kPa | 1224 ± 3 | 1212 ± 3 | 1199 ± 3 | 1187 ± 3 | 1176 ± 3 | 1164 ± 3 | 1152 ± 3 | 1140 ± 3 | 1129 ± 3
90000 kPa | 1227 ± 3 | 1215 ± 3 | 1203 ± 3 | 1191 ± 3 | 1180 ± 3 | 1169 ± 3 | 1157 ± 3 | 1145 ± 3 | 1134 ± 3
100000 kPa | 1231 ± 3 | 1219 ± 3 | 1207 ± 3 | 1195 ± 3 | 1184 ± 3 | 1173 ± 3 | 1161 ± 3 | 1150 ± 3 | 1139 ± 3
110000 kPa | 1234 ± 3 | 1223 ± 3 | 1211 ± 3 | 1199 ± 3 | 1188 ± 3 | 1177 ± 3 | 1165 ± 3 | 1154 ± 3 | 1143 ± 3
120000 kPa | 1238 ± 3 | 1226 ± 3 | 1214 ± 3 | 1203 ± 3 | 1192 ± 3 | 1181 ± 3 | 1170 ± 3 | 1158 ± 3 | 1147 ± 3
130000 kPa | 1241 ± 3 | 1229 ± 3 | 1218 ± 3 | 1206 ± 3 | 1195 ± 3 | 1185 ± 3 | 1173 ± 3 | 1162 ± 3 | 1152 ± 3
140000 kPa | 1244 ± 3 | 1233 ± 3 | 1221 ± 3 | 1210 ± 3 | 1199 ± 3 | 1189 ± 3 | 1177 ± 3 | 1166 ± 3 | 1156 ± 3
150000 kPa | 1248 ± 3 | 1236 ± 3 | 1225 ± 3 | 1213 ± 3 | 1203 ± 3 | 1192 ± 3 | 1181 ± 3 | 1170 ± 3 | 1160 ± 3
160000 kPa | 1251 ± 3 | 1239 ± 3 | 1228 ± 3 | 1217 ± 3 | 1206 ± 3 | 1196 ± 3 | 1185 ± 3 | 1174 ± 3 | 1164 ± 3
170000 kPa | 1254 ± 3 | 1243 ± 3 | 1231 ± 3 | 1220 ± 3 | 1210 ± 3 | 1199 ± 3 | 1188 ± 3 | 1177 ± 3 | 1167 ± 3
180000 kPa | 1257 ± 3 | 1246 ± 3 | 1234 ± 3 | 1223 ± 3 | 1213 ± 3 | 1203 ± 3 | 1192 ± 3 | 1181 ± 3 | 1171 ± 3
190000 kPa | 1260 ± 3 | 1249 ± 3 | 1237 ± 3 | 1227 ± 3 | 1216 ± 3 | 1206 ± 3 | 1195 ± 3 | 1185 ± 3 | 1175 ± 3
200000 kPa | 1263 ± 3 | 1252 ± 3 | 1241 ± 3 | 1230 ± 3 | 1220 ± 3 | 1210 ± 3 | 1199 ± 3 | 1188 ± 3 | 1178 ± 3

— the NIST ThermoML archive (doi:10.1016/j.fluid.2007.11.005)
